Literature values, collected in patent US5750504A, “Antimicrobial proteins” (Zeneca Agrochemicals, priority 1996, dated 1998).
Where no end group is shown, it is not given here.

Assays:
fungi = conditions: Rs-AFP-type proteins of WO93/05153; cited from earlier work
[1] = system: hyphae of Fusarium culmorum; conditions: Terras FRG et al, 1992; cited from earlier work

Substance	hyperbranching of fungi (fungi)	hyper-branching of hyphae of Fusarium culmorum [1]
Cb-AMP1: antimicrobial protein capable of isolation from Cnicus benedictus, SEQ ID NO 6 (ELCEKASKTWSGNCGNTKHCDDQCKSWEGAAHGACHVRNGKHMCFCYFNC; ends and bridges not checked; cysteine pairing not given here)	do not	
Dm-AMP1: antimicrobial protein capable of isolation from Dahlia merckii, SEQ ID NO 5 (ELCEKASKTWSGNCGNTGHCDNQCKSWEGAAHGACHVRNGKHMCFCYFNC; ends and bridges not checked; cysteine pairing not given here)	do not	
Rs-AFP1: antifungal protein from Raphanus sativus seeds, SEQ ID NO 3 (ZKLCERPSGTWSGVCGNNNACKNQCINLEKARHGSCNYVFPAHKCICYFPC)	cause hyperbranching	A similar effect
Rs-AFP2: antifungal protein from Raphanus sativus seeds, SEQ ID NO 4 (ZKLCQRPSGTWSGVCGNNNACKNQCIRLEKARHGSCNYVFPAHKCICYFPC)	cause hyperbranching	A similar effect
